Experimental data reported in patent publication US10837968B2, “Photoactivatable voltage sensitive dyes” (THE REGENTS OF THE UNIVERSITY OF CALIFORNIA, priority 2014, dated 2020).
“And” between values parts separate entries of the source, which are not always exact repeats. Equal values may be shown once. “Also recorded” adds a separate entry of the source.

Columns and labels:
[1] = test system: human embryonic kidney cells (HEK 293); assay: Cellular fluorescence of SPOT-stained HEK cells pre- and post-UV photoactivation; format: cell-based; settings: HEK cells loaded with 200 nM SPOT; 390 nm light for 30 seconds; n=3
Experimental: (§1) FIGS. 1A-1E. Illumination of SPOT dramatically increases fluorescence. Spectroscopic characterization of SPOT in PBS, pH 7. a) Absorbance profile of SPOT before (grey dotted trace) and after (green trace) illumination at 365 nm. The UV-vis spectrum of photoactivated SPOT is identical to a known standard of VF2.1.C1 (black trace). b) Emission spectrum of SPOT before (grey dotted trace) and after illumination (green trace) at 365 nm. c) HEK cells loaded with 200 nM SPOT prior to illumination. d) Cells from c) after illumination with 390 nm light for 30 seconds. e) Quantification of cellular fluorescence from cells stained with SPOT pre- and post-UV photoactivation. Illumination as in panel d) gives a 12-fold increase in fluorescence intensity (n=3).
We next turned our attention to assessing the properties of SPOT in living cells. […] Illumination with 390 nm (30 s) light results in an immediate increase in cell membrane-associated fluorescence characteristic of VoltageFluor staining (FIG. 1D). […] Membrane-associated fluorescence depends on prior UV illumination, as examination of areas of the same sample not exposed to light show very little cellular fluorescence. […] Following illumination, the cells stained with SPOT become bright and voltage-sensitive. […]

[2] = Spectroscopic characterization of SPOT in PBS, pH 7, before and after UV illumination; format: physicochemical
Experimental: as §1
FIG. 2. Characterization of SPOT photoproducts.
SPOT is readily available in one step from previously reported VoltageFluor compounds (Miller, et al., Natl Acad Sci USA, 2012, 109:2114). Alkylation of VF2.1.C1 with 2-nitro-4,5-dimethoxybenzylbromide in DMF provides SPOT as an analytically pure sample after purification via HPLC. Larger quantities are available through an alternate route in which the sulfonefluorescein head-group is first alkylated and then coupled to the phenylenevinylene molecular wire to give SPOT. We examined the photophysical behavior and characteristics of SPOT under simulated physiological conditions (PBS, pH 7). […] Emission from SPOT is minimal (FIG. 1B, grey trace), as reflected by its low fluorescence quantum yield. UV illumination of SPOT promptly delivers VF, as measured by complete recovery of absorbance profiles characteristic of VF2.1.C1 (FIG. 1A, green and black traces) and a 25-fold increase in fluorescence emission (FIG. 1B green trace).

COc1cc(COc2cc3oc4cc(=O)c(Cl)cc-4c(-c4ccc(/C=C/c5ccc(/C=C/c6ccc(N(C)C)cc6)cc5)cc4S(=O)(=O)O)c3cc2Cl)c([N+](=O)[O-])cc1OC [SPOT, 2-(2,7-dichloro-6-((4,5-dimethoxy-2-nitrobenzyl)oxy)-3-oxo-3H-xanthen-9-yl)-5-((E)-4-((E)-4-(dimethylamino)styryl)styryl)benzenesulfonic acid]
increase in mean cellular fluorescence intensity following irradiation [1]: 12±1.2 fold and 12 fold
absorbance maximum (λmax / strong absorbance) ([2]; PBS, pH 7, before illumination): 400 nm
fluorescence quantum yield ([2]; PBS, pH 7, before illumination): low
increase in fluorescence emission after UV illumination ([2]; PBS, pH 7, illumination at 365 nm): 25 fold
photoproduct of irradiation (HPLC and mass spectrometry) ([2]; phosphate buffered saline, pH 7.0, 365 nm light): clean conversion of SPOT into VF2.1.C1; also recorded: cleanly gives VF2.1.C1
